Test results as given in patent USRE42748E1, “Oral DTPA for radionuclide chelation” (priority 2006, dated 2011).
Values joined by “and” are separate entries in the source; they are usually repeats but may differ in a detail not shown here. Identical values can stand only once.

Assays:
[1] = Bioavailability study after liquid dose of radiolabeled DTPA (14C) in male Sprague-Dawley rats (SRI Study B230-06); format: in vivo
Procedure: The objective of this study was to determine the oral bioavailability of Ca-DTPA using radioactive ^14C-DTPA tracer for detection in male Sprague Dawley rats after oral administration in several different formulations. After oral gavage of Ca-DTPA or DTPA (free acid) in sterile water, the oral bioavailability of DTPA is estimated to be about 7% in these two treatment groups. […] In Group 7, which also was administered DTPA in 20% Labrasol (+Quinidine pretreatment), the mean bioavailability was 10%, but this group had greater interindividual variability than seen in the other treatment groups.

[2] = tested on: iron-loaded dogs; assay: Excretion of iron after repeat dose administration of DTPA in iron-loaded dogs; format: in vivo, beagle dogs; set-up: Excretion of Fe in urine / Excretion of Fe in urine, Total: unit not given here; details: for Excretion of Fe in urine, Total: sum 4 hr to 120 hr; for excretion of Fe after oral DTPA as % of the amount excreted by intravenously treated animals: oral vs IV
Procedure: The objective of this study was to evaluate the efficacy of an oral formulation of DTPA to enhance the excretion of iron in urine from iron-loaded dogs. Iron-loaded dogs were used in the study as a surrogate model for contamination by transuranic elements.
Two treatment groups, consisting of one male and one female dog, were compared. Ca-DTPA in sterile saline was administered by the intravenous route, 10 mg/kg, on Day 1, followed by 4 days of treatment with Zn-DTPA (10 mg/kg daily). The oral treatment group was also administered 10 mg/kg in 20% Labrasol® in capsules, with Ca-DTPA on Day 1 and Zn-DTPA on Days 2-5. Blood was collected from each dog at the following time points: predose and 1, 4, 8, and 24 hr after dose administration on Day 1, and at 24 hr postdose on Days 2-5. Dogs were maintained in metabolism cages for the study, and urine was collected at 4, 8, and 24 hr after the Day 1 dose, and every 24 hr after the Day 2-5 doses. Collected samples were analyzed for iron, calcium, and zinc by Perkin-Elmer ICP (Inductively Coupled Plasma) unit.

[3] = Oral bioavailability of two additional Ca-DTPA formulations in beagle dogs (SRI Study B221B-06)
Procedure: Oral bioavailability is assessed using the Beagle dog, or equivalent model, wherein levels of plasma Ca/Zn-DTPA from an orally administered composition are compared to levels obtained after i.v. administration using the calculation: BA=AUCPO×Doseiv/AUCiv×DosePO; where BA=bioavailability and AUC=area under the plasma concentration-time curve.
Two additional oral formulations of Ca-DTPA were studied in male and female beagle dogs to determine the effect of modifications in the formulation on oral bioavailability (SRI Study B221B-06). The dose administered was 10 mg/kg plus ˜100 μCi/kg. One male and one female dog received the drug in a bead formulation that consisted of 42.22% DTPA, 25.33% Labrasol®, 8.44% CAB-O-SIL EH5, 24.0% HPMC K110M, and 17.17% water; the other male and female dog were administered DTPA in a liquid formulation that consisted of 20% Labrasol®. In both dose groups, the formulated drug was added to size “0” capsules, then sealed and stored until administration.

[4] = tested on: harvested rat small intestinal segments: Duodenum; assay: Ussing chamber mucosal to serosal transport across rat duodenum; format: in vitro ADME; details: 5 mg/ml of DTPA in HEPES Buffer
Procedure: (§1) The primary objective of these in vitro studies was to determine a formulation containing permeation enhancers/other additives that achieved maximum transport of DTPA from mucosal to serosal side of the intestine. The mucosal to serosal absorption of DTPA (Zinc/Calcium) was measured in vitro across harvested rat intestinal segments and colon, in an EasyMount Ussing System (Physiological Instruments Inc., CA, Item #EM-CSYS-8). The Ussing chamber consists of two diffusion chambers, a heating block for temperature control, needle valves for gas flow adjustment and gas lift stirring, and Ag/AgCl voltage and current electrodes for measuring transepithelial voltage and for passing current. Representative sections of the harvested rat small intestinal segments (jejunum, duodenum, and ileum) and the rat colon were mounted on sliders placed between the chambers, and DTPA (Zinc/Calcium) transport across the sections was monitored. Aliquots of sample solution were removed from the ‘serosal’ side at 30 min intervals and analyzed by high performance liquid chromatography (HPLC). The change in mucosal to serosal transport of DTPA (Zinc/Calcium) in the presence of different permeation enhancers was determined.
(§2) Zn-DTPA and Ca-DTPA was dissolved in HEPES buffer (VWR, Brisbane, Calif.), with or without additives, at the predetermined drug concentrations. […]

[5] = tested on: harvested rat small intestinal segments: Jejunum; assay: Ussing chamber mucosal to serosal transport across rat jejunum; format: in vitro ADME
Procedure: as §1
Zn-DTPA and Ca-DTPA was dissolved in HEPES buffer (VWR, Brisbane, Calif.), with or without additives, at the predetermined drug concentrations. HEPES buffer was used as the base mucosal and serosal fluid. Before initiating the experiment, 5 ml of HEPES buffer was added to each of the two chambers (mucosal and serosal) and was allowed to equilibrate for 20 min. Next, the mucosal buffer was replaced by the appropriate formulation to be tested and the experiment was initiated. Aliquots (0.5 ml) were collected from the serosal side and were replaced with an equivalent amount of fresh HEPES buffer (maintained at physiological temperature). The aliquotted samples from the serosal side were analyzed by HPLC.
Owing to the expected variation in the in vitro conditions and harvested rat intestinal segments, five replicates were used per experimental condition. In order to compare data obtained from the different experiments, the apparent permeability coefficients (Papp) were calculated according to:
[formula] Where, dQ/dt is the linear appearance rate of mass in receiver compartment, C0 is the initial solute concentration in donor compartment, and A is the surface area. The higher the Papp value, the better the permeation property. The similarity of the Papp values indicates similar behavior for the two DTPA compounds.
We then evaluated transport of Zn-DTPA and Ca-DTPA through jejunum segments with and without Labrasol.
We then tested the transport of 100 mg/ml DTPA in HEPES buffer with and without added enhancers across jejunum segments; results are in Table 3.

[6] = tested on: harvested rat small intestinal segments: Ileum; assay: Ussing chamber mucosal to serosal transport across rat ileum; format: in vitro ADME; details: 5 mg/ml of DTPA in HEPES Buffer
Procedure: as §1, §2

[7] = tested on: rat colon; assay: Ussing chamber mucosal to serosal transport across rat colon; format: in vitro ADME; details: 5 mg/ml of DTPA in HEPES Buffer
Procedure: as §1, §2

## O=C(O)CN(CCN(CC(=O)O)CC(=O)O)CCN(CC(=O)O)CC(=O)O [DTPA]
[1]; Group 4 Oral, 20% Labrasol
  % Bioavailability Mean ± SD: ~12%
[1]; Group 7 Oral, 0.15 mM Quinidine pretreatment then 20% Labrasol
  % Bioavailability Mean ± SD: 10%
[1]; Group 7 Oral, 0.15 mM Quinidine pretreatment then 20% Labrasol, individual rats
  % Bioavailability: 19%
[2]; Dog 1M, IV 10 mg/kg daily, Time 48 hr
  Excretion of Fe in urine: 0.6044
[2]; Dog 1M, IV 10 mg/kg daily, Time 72 hr
  Excretion of Fe in urine: 0.1732
[2]; Dog 1M, IV 10 mg/kg daily, Time 96 hr
  Excretion of Fe in urine: 0.1762
[2]; Dog 1M, IV 10 mg/kg daily, Time 120 hr
  Excretion of Fe in urine: 0.2324
[2]; Dog 1M, IV 10 mg/kg daily
  Excretion of Fe in urine, Total: 1.444
[2]; Dog 1M, IV 10 mg/kg, Time 4 hr
  Excretion of Fe in urine: 0.0970
[2]; Dog 1M, IV 10 mg/kg, Time 8 hr
  Excretion of Fe in urine: 0.0471
[2]; Dog 1M, IV 10 mg/kg, Time 24 hr
  Excretion of Fe in urine: 0.1136
[2]; Dog 1M, IV in saline 10 mg/kg (Ca-DTPA Day 1, Zn-DTPA Days 2-5), Time 0 hr (predose)
  Excretion of Fe in urine: 0.1297
[2]; Dog 2F, IV 10 mg/kg daily, Time 48 hr
  Excretion of Fe in urine: 0.2686
[2]; Dog 2F, IV 10 mg/kg daily, Time 72 hr
  Excretion of Fe in urine: 0.1623
[2]; Dog 2F, IV 10 mg/kg daily, Time 96 hr
  Excretion of Fe in urine: 0.2884
[2]; Dog 2F, IV 10 mg/kg daily, Time 120 hr
  Excretion of Fe in urine: 0.0166
[2]; Dog 2F, IV 10 mg/kg daily
  Excretion of Fe in urine, Total: 0.925
[2]; Dog 2F, IV 10 mg/kg, Time 4 hr
  Excretion of Fe in urine: 0.0975
[2]; Dog 2F, IV 10 mg/kg, Time 8 hr
  Excretion of Fe in urine: 0.0124
[2]; Dog 2F, IV 10 mg/kg, Time 24 hr
  Excretion of Fe in urine: 0.0792
[2]; Dog 2F, IV in saline 10 mg/kg (Ca-DTPA Day 1, Zn-DTPA Days 2-5), Time 0 hr (predose)
  Excretion of Fe in urine: 0.1158
[2]; Dog 3M, Oral 10 mg/kg in 20% Labrasol capsules (Ca-DTPA Day 1, Zn-DTPA Days 2-5), Time 0 hr (predose)
  Excretion of Fe in urine: 0.0947
[2]; Dog 3M, Oral 10 mg/kg in 20% Labrasol capsules, Time 4 hr
  Excretion of Fe in urine: 0.0654
[2]; Dog 3M, Oral 10 mg/kg in 20% Labrasol capsules, Time 8 hr
  Excretion of Fe in urine: 0.0153
[2]; Dog 3M, Oral 10 mg/kg in 20% Labrasol capsules, Time 24 hr
  Excretion of Fe in urine: 0.1000
[2]; Dog 3M, Oral 10 mg/kg in 20% Labrasol capsules, Time 48 hr
  Excretion of Fe in urine: 0.1232
[2]; Dog 3M, Oral 10 mg/kg in 20% Labrasol capsules, Time 72 hr
  Excretion of Fe in urine: 0.0506
[2]; Dog 3M, Oral 10 mg/kg in 20% Labrasol capsules, Time 96 hr
  Excretion of Fe in urine: 0.1869
[2]; Dog 3M, Oral 10 mg/kg in 20% Labrasol capsules, Time 120 hr
  Excretion of Fe in urine: 0.0506
[2]; Dog 3M, Oral 10 mg/kg in 20% Labrasol capsules
  Excretion of Fe in urine, Total: 0.591
[2]; Dog 4F, Oral 10 mg/kg in 20% Labrasol capsules (Ca-DTPA Day 1, Zn-DTPA Days 2-5), Time 24 hr
  Excretion of Fe in urine: 0.0314
[2]; Dog 4F, Oral 10 mg/kg in 20% Labrasol capsules, Time 48 hr
  Excretion of Fe in urine: 0.1162
[2]; Dog 4F, Oral 10 mg/kg in 20% Labrasol capsules, Time 72 hr
  Excretion of Fe in urine: 0.0210
[2]; Dog 4F, Oral 10 mg/kg in 20% Labrasol capsules, Time 96 hr
  Excretion of Fe in urine: 0.0406
[2]; Dog 4F, Oral 10 mg/kg in 20% Labrasol capsules, Time 120 hr
  Excretion of Fe in urine: 0.1089
[2]; Dog 4F, Oral 10 mg/kg in 20% Labrasol capsules
  Excretion of Fe in urine, Total: 0.318
[2]; female Dog 4 (oral group)
  time of highest excretion of Fe in the urine: 48 h
[2]; female dogs
  excretion of Fe after oral DTPA as % of the amount excreted by intravenously treated animals: 34%
[2]; male Dog 1 (intravenous group)
  time of highest excretion of Fe in the urine: 48 h
[2]; male dogs
  excretion of Fe after oral DTPA as % of the amount excreted by intravenously treated animals: 40%
[2]; the other two dogs (Dog 2 IV, Dog 3 oral)
  time of highest excretion of Fe in the urine: 96 h
[3]; by 24 hr, both treatment groups (bead and liquid capsule)
  dose excreted in the feces: 73-74%
[3]; by 264 hr after dose administration, oral Labrasol formulations
  dose recovered in the excreta: 95-96%

## O=C([O-])CN(CCN(CC(=O)[O-])CC(=O)[O-])CCN(CC(=O)[O-])CC(=O)[O-].[Na+].[Na+].[Na+].[Zn+2] [Zn-DTPA, zinc diethylenetriaminepentaacetate]
[4]
  Papp: 1.65 ×10⁻⁶ cm/s
[5]; Jejunum, 5 mg/ml of drug in HEPES Buffer
  Papp: 4.54 ×10⁻⁶ cm/s and 4.28 ×10⁻⁶ cm/s
[5]; jejunum, 5 mg/ml of drug in HEPES Buffer containing 40% Labrasol
  Papp: 19.08 ×10⁻⁶ cm/s
[5]; jejunum, 100 mg/ml DTPA in HEPES buffer, 5% TPGS + 5% Labrasol
  Papp: 6.34 ×10⁻⁶ cm/s
[5]; jejunum, 100 mg/ml DTPA in HEPES buffer, 5% Tween 80 + 5% Labrasol
  Papp: 13.27 ×10⁻⁶ cm/s
[5]; jejunum, 100 mg/ml DTPA in HEPES buffer, 20% Bile Salt
  Papp: 19.65 ×10⁻⁶ cm/s
[5]; jejunum, 100 mg/ml of drug in HEPES Buffer containing 10% Labrasol
  Papp: 4.21 ×10⁻⁶ cm/s
[5]; jejunum, 100 mg/ml of drug in HEPES Buffer containing 20% Labrasol
  Papp: 3.53 ×10⁻⁶ cm/s
[5]; jejunum, 100 mg/ml of drug in HEPES Buffer containing 40% Labrasol
  Papp: 6.81 ×10⁻⁶ cm/s
[5]; jejunum, 100 mg/ml of drug in HEPES Buffer only
  Papp: 5.86 ×10⁻⁶ cm/s
[6]
  Papp: 2.07 ×10⁻⁶ cm/s
[7]
  Papp: 2.39 ×10⁻⁶ cm/s

## O=C(O)CN(CCN(CC(=O)O)CC(=O)O)CCN(CC(=O)O)CC(=O)O [free acid DTPA]
[1]; Group 3 Oral, water
  % Bioavailability Mean ± SD: 6.80 ± 1.66%
[1]; Group 3 Oral, water, 16.38 mg-equiv DTPA/Kg, 6 hr
  AUC0→last Mean ± SD: 1.21 ± 0.29 Hr * ( ng/ml)
[1]; Group 3 Oral, water, 16.38 mg-equiv DTPA/Kg, last time point 6 hr, individual rats
  AUC0→last: 1.4708 Hr * ( ng/ml) and 0.8897 Hr * ( ng/ml) and 1.2594 Hr * ( ng/ml)
[1]; Group 3 Oral, water, individual rats
  % Bioavailability: 8.29% and 5.02% and 7.10%
[1]; Group 3 Oral, water, listed as DTPA (free acid)
  % Bioavailability Mean ± SD: about 7%

## C=C[C@H]1C[N@@]2CC[C@H]1C[C@@H]2[C@@H](O)c1ccnc2ccc(OC)cc12 [quinidine]
[1]; 0.15 mM quinidine 20 min before DTPA in 20% Labrasol, inferred from rat #19
  inhibition of efflux transport of DTPA: active in inhibiting efflux transport of DTPA
